Where two headings read alike, the source gives them in different places.
Tests used:
[1] = system: 5-HT2A; experiment: Ca2+ flux assay, 5-HT2A; type: cell-based, human; conditions: Gq/11 Ca2+ mobilization; higher number = skewed towards 5-HT2A
[2] = target: T1, 5-HT1A (Homo sapiens, UniProt P08908); experiment: Competitive radioligand binding (NIMH PDSP)
T1 sequence (P08908 1-422): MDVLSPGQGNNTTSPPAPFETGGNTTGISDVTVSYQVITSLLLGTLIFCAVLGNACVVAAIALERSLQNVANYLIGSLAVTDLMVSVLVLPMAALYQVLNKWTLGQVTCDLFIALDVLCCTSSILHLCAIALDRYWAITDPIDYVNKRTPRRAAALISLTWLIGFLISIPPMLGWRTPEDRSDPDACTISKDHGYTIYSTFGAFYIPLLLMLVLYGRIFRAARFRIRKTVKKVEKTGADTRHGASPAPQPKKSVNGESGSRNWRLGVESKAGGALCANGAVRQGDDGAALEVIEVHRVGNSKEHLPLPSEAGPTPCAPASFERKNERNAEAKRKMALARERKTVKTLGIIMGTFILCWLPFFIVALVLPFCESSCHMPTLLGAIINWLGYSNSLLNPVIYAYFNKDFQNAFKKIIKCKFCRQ
Method: (§1) Method 1: Competitive binding experiments were performed by the National Institute of Mental Health Psychoactive Drug Screening Program (NIMH PDSP) using described methods or 5-HT2A experiments performed using [3H]-ketanserin displacement in human 5-HT2A expressing membranes. Target compounds were dissolved in DMSO and an initial screen performed to assess displacement of the radioligand from target receptors at a concentration of 10,000 nM. […] For the Ki experiments, compounds were always tested in triplicate on separate plates. Each plate also contained a known ligand for the receptor as a positive control.

[3] = target: 5-HT1B (Homo sapiens, UniProt P28222); experiment: Competitive radioligand binding (NIMH PDSP)
Chain of 5-HT1B (P28222 whole entry, species assumed): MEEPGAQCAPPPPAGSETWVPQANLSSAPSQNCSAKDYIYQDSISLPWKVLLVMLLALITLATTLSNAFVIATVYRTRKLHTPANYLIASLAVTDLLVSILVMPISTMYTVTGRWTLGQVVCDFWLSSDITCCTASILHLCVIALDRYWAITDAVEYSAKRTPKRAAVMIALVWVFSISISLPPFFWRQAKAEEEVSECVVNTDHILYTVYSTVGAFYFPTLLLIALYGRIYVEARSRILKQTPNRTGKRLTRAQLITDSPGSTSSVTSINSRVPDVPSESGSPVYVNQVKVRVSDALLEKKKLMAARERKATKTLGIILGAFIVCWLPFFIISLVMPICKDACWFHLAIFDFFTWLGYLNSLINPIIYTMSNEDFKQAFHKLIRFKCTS
Method: as §1

[4] = target: 5-HT1D (Homo sapiens, UniProt P28221); experiment: Competitive radioligand binding (NIMH PDSP)
Chain of 5-HT1D (P28221 whole entry, species assumed): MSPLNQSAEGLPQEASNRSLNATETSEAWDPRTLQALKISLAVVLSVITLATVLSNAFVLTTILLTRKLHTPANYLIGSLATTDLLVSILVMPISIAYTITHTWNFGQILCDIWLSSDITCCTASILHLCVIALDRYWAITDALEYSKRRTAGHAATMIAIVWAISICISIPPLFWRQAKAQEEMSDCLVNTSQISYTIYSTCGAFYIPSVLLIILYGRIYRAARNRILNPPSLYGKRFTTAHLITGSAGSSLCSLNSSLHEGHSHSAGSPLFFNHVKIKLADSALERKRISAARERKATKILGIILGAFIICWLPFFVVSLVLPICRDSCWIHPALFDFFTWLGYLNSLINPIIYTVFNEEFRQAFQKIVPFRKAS
Method: as §1

[5] = target: 5-HT1e (Homo sapiens, UniProt P28566); experiment: Competitive radioligand binding (NIMH PDSP)
Chain of 5-HT1e (P28566 whole entry, species assumed): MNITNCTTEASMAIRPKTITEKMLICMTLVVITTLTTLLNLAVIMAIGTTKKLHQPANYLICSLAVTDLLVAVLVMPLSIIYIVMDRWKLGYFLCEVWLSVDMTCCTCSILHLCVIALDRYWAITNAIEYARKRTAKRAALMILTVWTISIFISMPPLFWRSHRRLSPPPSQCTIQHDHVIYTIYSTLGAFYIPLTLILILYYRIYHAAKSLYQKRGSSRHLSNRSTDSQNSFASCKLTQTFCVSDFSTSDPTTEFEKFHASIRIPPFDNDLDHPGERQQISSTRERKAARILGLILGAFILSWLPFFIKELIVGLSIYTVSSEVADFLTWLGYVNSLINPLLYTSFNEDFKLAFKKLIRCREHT
Method: as §1

[6] = target: T2, 5-HT2A (Homo sapiens, UniProt P28223); experiment: Competitive radioligand binding (NIMH PDSP)
T2 sequence (P28223 whole entry): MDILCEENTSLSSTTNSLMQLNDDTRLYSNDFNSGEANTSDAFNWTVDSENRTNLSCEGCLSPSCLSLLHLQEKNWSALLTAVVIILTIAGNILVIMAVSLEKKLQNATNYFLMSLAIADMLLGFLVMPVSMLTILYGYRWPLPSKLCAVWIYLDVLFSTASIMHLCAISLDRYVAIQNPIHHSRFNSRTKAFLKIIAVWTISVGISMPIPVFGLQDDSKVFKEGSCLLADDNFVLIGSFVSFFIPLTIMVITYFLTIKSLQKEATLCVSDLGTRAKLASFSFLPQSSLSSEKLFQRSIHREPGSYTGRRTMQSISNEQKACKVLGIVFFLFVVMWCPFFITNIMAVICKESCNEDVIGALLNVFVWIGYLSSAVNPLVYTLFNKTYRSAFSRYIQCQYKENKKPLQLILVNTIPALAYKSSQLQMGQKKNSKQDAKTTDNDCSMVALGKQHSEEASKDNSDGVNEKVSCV
Method: as §1

[7] = target: T3, 5-HT3 (Homo sapiens, UniProt P46098); experiment: Competitive radioligand binding (NIMH PDSP)
T3 sequence (P46098 24-478): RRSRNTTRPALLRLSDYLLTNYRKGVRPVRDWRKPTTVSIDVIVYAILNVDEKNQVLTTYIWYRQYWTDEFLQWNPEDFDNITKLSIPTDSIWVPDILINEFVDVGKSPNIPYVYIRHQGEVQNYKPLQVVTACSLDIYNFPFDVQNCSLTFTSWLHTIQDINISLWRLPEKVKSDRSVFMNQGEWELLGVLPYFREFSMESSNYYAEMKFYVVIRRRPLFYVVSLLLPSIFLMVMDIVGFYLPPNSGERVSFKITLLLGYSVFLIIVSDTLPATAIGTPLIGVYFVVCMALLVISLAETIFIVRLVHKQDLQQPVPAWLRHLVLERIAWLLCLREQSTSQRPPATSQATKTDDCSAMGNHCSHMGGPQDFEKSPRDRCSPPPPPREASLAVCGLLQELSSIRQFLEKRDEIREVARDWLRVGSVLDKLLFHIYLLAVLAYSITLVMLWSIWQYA
Method: as §1

[8] = target: T2, 5-HT2A; experiment: Ca2+ flux assay, 5-HT2A; type: cell-based; design: expressed in transfected cells; conditions: for Emax: read-out: 5-HT2A Emax % 5-HT, Ca2+ flux
[9] = target: T4, 5-HT2B (Homo sapiens, UniProt P41595); experiment: Ca2+ flux assay, 5-HT2B; type: cell-based; design: expressed in transfected cells; conditions: Ca2+ flux; for Emax: read-out: 5-HT2B Emax % 5-HT
T4 sequence (P41595 whole entry): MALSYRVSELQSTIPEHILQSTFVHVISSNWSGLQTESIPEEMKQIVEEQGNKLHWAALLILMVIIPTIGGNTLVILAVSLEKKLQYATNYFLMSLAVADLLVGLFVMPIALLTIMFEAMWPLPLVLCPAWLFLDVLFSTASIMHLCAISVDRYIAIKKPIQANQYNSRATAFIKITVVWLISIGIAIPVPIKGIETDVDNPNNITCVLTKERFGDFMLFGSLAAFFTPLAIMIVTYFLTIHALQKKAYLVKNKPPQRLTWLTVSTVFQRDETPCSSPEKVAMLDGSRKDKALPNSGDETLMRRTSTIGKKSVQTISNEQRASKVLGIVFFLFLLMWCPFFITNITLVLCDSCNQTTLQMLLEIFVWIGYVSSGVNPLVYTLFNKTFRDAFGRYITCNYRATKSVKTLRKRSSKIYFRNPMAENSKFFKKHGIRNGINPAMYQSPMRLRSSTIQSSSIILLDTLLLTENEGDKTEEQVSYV

[10] = target: T5, 5-HT2C (Homo sapiens, UniProt P28335); experiment: Ca2+ flux assay, 5-HT2C; type: cell-based; design: expressed in transfected cells; conditions: for Emax: read-out: 5-HT2C Emax % 5-HT
T5 sequence (P28335 33-458): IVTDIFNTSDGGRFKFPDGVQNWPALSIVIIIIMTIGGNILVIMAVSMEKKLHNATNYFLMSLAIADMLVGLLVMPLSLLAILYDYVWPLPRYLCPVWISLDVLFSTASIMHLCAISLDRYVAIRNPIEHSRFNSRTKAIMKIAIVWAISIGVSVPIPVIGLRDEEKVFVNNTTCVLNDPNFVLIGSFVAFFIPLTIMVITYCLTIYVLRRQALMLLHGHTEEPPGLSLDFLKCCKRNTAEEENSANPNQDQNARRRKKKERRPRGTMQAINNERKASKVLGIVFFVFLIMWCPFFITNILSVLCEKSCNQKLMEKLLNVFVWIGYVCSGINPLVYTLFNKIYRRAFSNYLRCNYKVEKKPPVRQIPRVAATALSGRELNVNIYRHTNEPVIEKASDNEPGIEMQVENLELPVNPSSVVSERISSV

[11] = target: T4, 5-HT2B; experiment: Competitive radioligand binding (NIMH PDSP); design: expressed in transfected cells
Method: as §1

[12] = target: T5, 5-HT2C; experiment: Competitive radioligand binding (NIMH PDSP); design: expressed in transfected cells
Method: as §1

COc1cc([N+](=O)[O-])c(OC)cc1CCNCc1ccccc1OC [25N-NBOMe (4), [2-(2,5-dimethoxy-4-nitrophenyl)ethyl] [(2-methoxyphenyl)methyl]amine]
5-HT2A/5-HT2c Selectivity Factor ΔLog(Emax/EC50) [1]: 2.4 | Ki [2]: 1860 nM | Ki [3]: > 10000 nM | Ki [4]: 5620 nM | Ki [5]: > 10000 nM | Ki [6]: 0.55 nM | Ki [7]: > 10000 nM | EC50 ([8]; 5-HT2A (pEC50 ± SEM), Ca2+ flux): 0.316 nM | Emax [8]: 94% | 5-HT2B EC50, nM [9]: No activity | Emax [9]: < 10% | EC50 ([10]; 5-HT2C (pEC50 ± SEM)): 0.851 nM | EC50 ([10]; 5-HT2C EC50, nM): 0.84 nM | Emax [10]: 102 ± 1% | Ki [11]: 4.47 nM | Ki [12]: 6.92 nM

COc1cc([N+](=O)[O-])c(OC)cc1CCNCc1cccc2ccccc12 [25N-N-1-Nap (16), [2-(2,5-dimethoxy-4-nitrophenyl)ethyl][(naphthalen-1-yl)methyl]amine]
5-HT2A/5-HT2c Selectivity Factor ΔLog(Emax/EC50) [1]: 5-HT2A Selective | Ki [2]: 240 nM | Ki [3]: > 10000 nM | Ki [4]: 871 nM | Ki [5]: > 10000 nM | Ki [6]: 1.15 nM | Ki [7]: > 10000 nM | 5-HT2A EC50, nM ([8]; Ca2+ flux): No activity | Emax [8]: < 10% | 5-HT2B EC50, nM [9]: No activity | Emax [9]: < 10% | 5-HT2C EC50, nM [10]: No activity | Emax [10]: < 10% | Ki [11]: 1.17 nM | Ki [12]: 4.27 nM

COc1cc([N+](=O)[O-])c(OC)cc1CCNCc1ccccc1 [25N-NB (2), Benzyl[2-(2,5-dimethoxy-4-nitrophenyl)ethyl]amine]
5-HT2A/5-HT2c Selectivity Factor ΔLog(Emax/EC50) [1]: 23.6 | EC50 ([8]; 5-HT2A EC50, nM, Ca2+ flux): 1.27 nM | Emax [8]: 86 ± 1% | 5-HT2B EC50, nM [9]: No activity | Emax [9]: < 10% | EC50 ([10]; 5-HT2C EC50, nM): 26.2 nM | Emax [10]: 75 ± 1%

COc1cc([N+](=O)[O-])c(OC)cc1CCNCc1ccccc1OC(F)(F)F [25N-NBOCF3 (12)]
5-HT2A/5-HT2c Selectivity Factor ΔLog(Emax/EC50) [1]: 6.1 | 5-HT1A pKi affinity (Ki ± SEM) [2]: 5.95 | 5-HT1B pKi affinity (Ki ± SEM) [3]: <5 | 5-HT1D pKi affinity (Ki ± SEM) [4]: <5 | 5-HT1e pKi affinity (Ki ± SEM) [5]: <5 | 5-HT2A pKi affinity (Ki ± SEM) [6]: 7.84 | 5-HT3 pKi affinity (Ki ± SEM) [7]: <5 | 5-HT2A (pEC50 ± SEM) ([8]; Ca2+ flux): (8.09 ± 0.09) | 5-HT2A Emax % 5-HT ([8]; Ca2+ flux): 75 ± 2 % 5-HT | EC50 ([8]; Ca2+ flux, read-out: 5-HT2A EC50): 8.09 nM | 5-HT2B EC50, nM [9]: No activity | 5-HT2B Emax % 5-HT [9]: <10 % 5-HT | 5-HT2C (pEC50 ± SEM) [10]: (7.23 ± 0.04) | 5-HT2C Emax % 5-HT [10]: 89 ± 1 % 5-HT | EC50 ([10]; read-out: 5-HT2C EC50): 58.3 nM | 5-HT2B pKi affinity (Ki ± SEM) [11]: 7.86 | 5-HT2C pKi affinity (Ki ± SEM) [12]: 7.33

COc1cc([N+](=O)[O-])c(OC)cc1CCNCc1ccccc1-c1ccccc1 [25N-NBPh (17), ({[1,1′-biphenyl]-2-yl}methyl)[2-(2,5-dimethoxy-4-nitrophenyl)ethyl]amine]
5-HT2A/5-HT2c Selectivity Factor ΔLog(Emax/EC50) [1]: 5-HT2A Selective | Ki [2]: 1780 nM | Ki [3]: > 10000 nM | Ki [4]: 1200 nM | Ki [5]: > 10000 nM | Ki [6]: 0.331 nM | Ki [7]: > 10000 nM | 5-HT2A EC50, nM ([8]; Ca2+ flux): No activity | Emax [8]: < 10% | 5-HT2B EC50, nM [9]: No activity | Emax [9]: < 10% | 5-HT2C EC50, nM [10]: No activity | Emax [10]: < 10% | Ki [11]: 1410 nM | Ki [12]: 372 nM
